Source: patent publication US20050014789A1, “Amide derivatives as selective serotonin re-uptake inhibitors” (Pfizer Inc, priority 2003, published 2005)

Key:
Format in all cases: cell-based
[1] = target: T1, noradrenaline transporter (hNET) (Homo sapiens, UniProt P23975); assay: Inhibition of 3H-noradrenaline uptake in HEK-293 cells expressing hNET
T1 construct: expressed in transfected cells
Method: (§1) Cells were harvested for the assay to yield a cell suspension of 750,000 cells/ml. All test compounds were dissolved in 100% DMSO and diluted down in assay buffer to give appropriate test concentrations. Assays were carried out in 96-well filter bottom plates. […] All reactions were carried out at room temperature in a shaking incubator. Incubation times were 5 minutes for the hSERT and hDAT assays and 15 minutes for the hNET assay. Reactions were terminated by removal of the reaction mixture using a vacuum manifold followed by rapid washing with ice cold assay buffer. The quantity of ^3H-substrate incorporated into the cells was then quantified. Assay plates were dried in a microwave oven, scintillation fluid added, and radioactivity measured. […] Note: The pH of the buffer was adjusted to 7.40 with 1M NaOH before addition of CaCl2 and pargyline. [table]

[2] = target: T2, dopamine transporter (hDAT) (Homo sapiens, UniProt Q01959); assay: Inhibition of 3H-dopamine uptake in HEK-293 cells expressing hDAT
T2 construct: expressed in transfected cells
T2 sequence (Q01959 whole entry): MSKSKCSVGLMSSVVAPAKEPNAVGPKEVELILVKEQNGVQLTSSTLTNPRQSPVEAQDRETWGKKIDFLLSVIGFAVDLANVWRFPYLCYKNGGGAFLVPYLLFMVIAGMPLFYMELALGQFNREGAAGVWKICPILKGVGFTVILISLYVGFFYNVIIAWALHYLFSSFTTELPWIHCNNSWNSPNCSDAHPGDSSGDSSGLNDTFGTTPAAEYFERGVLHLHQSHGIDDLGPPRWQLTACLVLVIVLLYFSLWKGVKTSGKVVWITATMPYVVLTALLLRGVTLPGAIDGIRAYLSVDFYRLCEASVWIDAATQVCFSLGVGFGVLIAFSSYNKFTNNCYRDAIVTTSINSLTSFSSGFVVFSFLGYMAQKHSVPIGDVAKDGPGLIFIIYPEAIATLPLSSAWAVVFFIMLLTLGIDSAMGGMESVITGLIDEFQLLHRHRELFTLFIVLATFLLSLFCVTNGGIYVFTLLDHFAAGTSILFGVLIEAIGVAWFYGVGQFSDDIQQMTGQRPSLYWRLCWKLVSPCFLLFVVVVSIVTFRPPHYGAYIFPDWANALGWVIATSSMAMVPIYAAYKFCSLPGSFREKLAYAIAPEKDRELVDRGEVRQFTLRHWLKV
Method: as §1, with “All test compounds were dissolved in 100% DMSO and diluted down in assay buffer to give appropriate test concentrations.” left out, “pargyline.” for “pargyline. [table]”

[3] = target: T3, human serotonin transporter (hSERT) (Homo sapiens, UniProt P31645); assay: Inhibition of 3H-serotonin uptake in HEK-293 cells expressing hSERT; conditions: HEK-293 hSERT cells, 3H-5HT 50 nM, 5 min incubation; read-out: serotonin re-uptake inhibition (SRI) IC50
T3 construct: expressed in transfected cells
T3 sequence (P31645 whole entry): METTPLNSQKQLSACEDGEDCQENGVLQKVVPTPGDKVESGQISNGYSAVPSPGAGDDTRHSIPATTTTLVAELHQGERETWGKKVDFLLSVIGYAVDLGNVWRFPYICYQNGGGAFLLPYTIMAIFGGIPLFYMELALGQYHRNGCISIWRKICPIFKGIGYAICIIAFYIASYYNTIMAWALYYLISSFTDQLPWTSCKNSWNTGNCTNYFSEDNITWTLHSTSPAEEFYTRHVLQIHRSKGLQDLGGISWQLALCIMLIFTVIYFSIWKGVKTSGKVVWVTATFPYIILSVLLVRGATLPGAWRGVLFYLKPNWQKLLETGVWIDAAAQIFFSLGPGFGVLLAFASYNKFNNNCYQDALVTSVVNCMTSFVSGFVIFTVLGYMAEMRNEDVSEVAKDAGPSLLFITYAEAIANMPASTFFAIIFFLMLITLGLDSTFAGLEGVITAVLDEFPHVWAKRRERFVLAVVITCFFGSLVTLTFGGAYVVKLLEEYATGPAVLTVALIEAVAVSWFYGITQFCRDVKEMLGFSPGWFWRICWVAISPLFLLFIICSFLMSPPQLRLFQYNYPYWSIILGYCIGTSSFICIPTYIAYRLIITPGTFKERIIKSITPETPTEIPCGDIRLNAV
Method: as §1, with “All test compounds were dissolved in 100% DMSO and diluted down in assay buffer to give appropriate test concentrations.” left out, “pargyline.” for “pargyline. [table]”

T1 sequence (P23975 whole entry): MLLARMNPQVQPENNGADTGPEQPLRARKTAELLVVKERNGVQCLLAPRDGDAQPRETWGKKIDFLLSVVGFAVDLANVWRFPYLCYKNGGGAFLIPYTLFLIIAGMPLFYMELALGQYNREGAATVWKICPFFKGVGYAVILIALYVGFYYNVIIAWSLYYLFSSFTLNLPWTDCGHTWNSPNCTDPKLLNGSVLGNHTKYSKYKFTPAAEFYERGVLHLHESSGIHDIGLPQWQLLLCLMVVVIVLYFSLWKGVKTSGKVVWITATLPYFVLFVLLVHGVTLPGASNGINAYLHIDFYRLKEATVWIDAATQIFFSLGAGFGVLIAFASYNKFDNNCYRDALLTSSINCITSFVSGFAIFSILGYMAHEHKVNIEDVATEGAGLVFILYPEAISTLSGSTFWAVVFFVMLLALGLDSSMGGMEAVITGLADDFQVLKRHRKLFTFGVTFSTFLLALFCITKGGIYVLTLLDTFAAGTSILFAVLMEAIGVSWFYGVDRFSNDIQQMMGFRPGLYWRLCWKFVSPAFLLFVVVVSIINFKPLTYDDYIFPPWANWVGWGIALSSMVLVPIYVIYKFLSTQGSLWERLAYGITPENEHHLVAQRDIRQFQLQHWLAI

**Q.** How did the IC50 ([1]; HEK-293 hNET cells, 3H-Noradrenaline 200 nM, 15 min incubation, read-out: noradrenaline re-uptake inhibition IC50) turn out when `CC(C)CN(C(=O)c1ccc2ccccc2c1)[C@@H]1CCNC1.Cl` [Example 23, N-Isobutyl-N-[(3R)-pyrrolidin-3-yl]-2-naphthamide hydrochloride] was run?
**A.** The IC50 was 1230 nM.

**Q.** What about the “fold more potent (serotonin re-uptake) over noradrenaline re-uptake” value ([1]; selectivity hSERT vs hNET) of the same compound?
**A.** Its value is 261 fold.

**Q.** What about the IC50 ([2]; HEK-293 hDAT cells, 3H-Dopamine 200 nM, 5 min incubation, read-out: dopamine re-uptake inhibition IC50) of the same compound?
**A.** The IC50 was 9490 nM.

**Q.** And the “fold more potent (serotonin re-uptake) over dopamine re-uptake” value ([2]; selectivity hSERT vs hDAT)?
**A.** Its value is 2018 fold.

**Q.** What about the IC50 [3] of the same compound?
**A.** The IC50 was 4.7 nM.
